In the supplement of paper PMC10307832:

Tests used:
Assay in all cases: relative viability (nuclei count vs DMSO), 5 days (fraction); higher = more cells survive
[1] = compound: C1=CC2=C(C=C(C(=C2N=C1)O)N=NC3=CC4=C(C=C3)C=C(C=C4)S(=O)(=O)O)S(=O)(=O)O + CC(C)C[C@H](NC(=O)[C@H](Cc1ccccc1)NC(=O)c1cnccn1)B(O)O [Bortezomib] (partner 0.002 µM)
How it was run: (§1)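 Lung cancer cell lines were seeded in 1536-well plates and dosed by pin tool the next day, with either a single drug or a fixed anchor-drug dose combined with five library-drug doses (not always all listed) spaced in √10 steps. Five days later, one step fixed the cells and stained their nuclei (final 0.05% Triton X-100, 1% formaldehyde, 1 ug/ml Hoechst), and nuclei were counted on 4× images. Relative viability is the nuclei count in treated wells divided by the count in vehicle wells, and each value is the median of duplicate plates.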

[2] = compound: C1=CC2=C(C=C(C(=C2N=C1)O)N=NC3=CC4=C(C=C3)C=C(C=C4)S(=O)(=O)O)S(=O)(=O)O + C[C@]1(O)C[C@@H](c2nc(-c3ccc4ccc(-c5ccccc5)nc4c3)c3c(N)nccn32)C1 [Linsitinib] (partner 1 µM)
How it was run: as §1

AT-7519 + Palbociclib = compound: O=C(NC1CCNCC1)c1n[nH]cc1NC(=O)c1c(Cl)cccc1Cl [AT-7519] + CC(=O)c1c(C)c2cnc(Nc3ccc(N4CCNCC4)cn3)nc2n(C2CCCC2)c1=O [Palbociclib] (partner 0.5 µM)
How it was run: as §1

AT-7519 + Dasatinib = compound: O=C(NC1CCNCC1)c1n[nH]cc1NC(=O)c1c(Cl)cccc1Cl [AT-7519] + Cc1nc(Nc2ncc(C(=O)Nc3c(C)cccc3Cl)s2)cc(N2CCN(CCO)CC2)n1 [Dasatinib] (partner 0.075 µM)
How it was run: as §1

Cell Line	relative viability ([1]; first compound 0.08 µM)	relative viability ([1]; first compound 0.253 µM)	relative viability ([1]; first compound 0.8 µM)	relative viability ([1]; first compound 2.53 µM)	relative viability ([1]; first compound 8 µM)	relative viability ([2]; first compound 0.08 µM)	relative viability ([2]; first compound 0.253 µM)	relative viability ([2]; first compound 0.8 µM)	relative viability ([2]; first compound 2.53 µM)	relative viability ([2]; first compound 8 µM)	relative viability (AT-7519 + Palbociclib; first compound 0.01 µM)	relative viability (AT-7519 + Palbociclib; first compound 0.03162 µM)	relative viability (AT-7519 + Palbociclib; first compound 0.3162 µM)	relative viability (AT-7519 + Palbociclib; first compound 1 µM)	relative viability (AT-7519 + Dasatinib; first compound 0.01 µM)	relative viability (AT-7519 + Dasatinib; first compound 0.03162 µM)	relative viability (AT-7519 + Dasatinib; first compound 0.3162 µM)	relative viability (AT-7519 + Dasatinib; first compound 1 µM)
201T	1.09	1.1	1.07	1.11	1	1.05	1.01	1	1.05	1.07	0.339	0.34	0.32	0.363	0.586	0.528	0.609	0.662
A549						0.7	0.515	0.617	0.645	0.576								
A-427	0.956	1.02	0.981	1.04	0.966	1.18	1.07	1.08	1.07	1.11	0.551	0.491	0.467	0.327	0.702	0.675	0.707	0.391
ABC-1	0.277	0.393	0.281	0.246	0.226	0.8	0.632	0.86	0.688	0.738	0.778	0.702	0.549	0.442	0.525	0.617	0.398	0.262
BEN	0.967	0.75	0.776	0.875	0.873	1.11	0.887	0.799	0.94	0.827	0.5	0.515	0.455	0.461	0.354	0.321	0.399	0.331
CAL-12T	0.843	0.914	0.788	0.979	1.03	0.938	0.753	0.751	0.773	0.889	0.396	0.471	0.172	0.151	0.532	0.404	0.214	0.0899
COR-L23	0.982	0.953	1.06	0.962	1.03	1.01	0.927	0.925	0.87	0.753	0.306	0.28	0.265	0.157	0.434	0.513	0.369	0.137
COR-L 105	0.806	0.662	0.83	0.87	0.757	0.931	0.939	1.04	0.985	1.01	0.382	0.416	0.371	0.354	0.366	0.334	0.259	0.23
Calu-6	0.982	1.07	1.05	1.06	1.02	1.08	0.976	0.911	0.926	0.969								
ChaGo-K-1	1.05	1.03	0.986	0.958	0.557						0.952	0.938	0.922	0.869	0.583	0.501	0.611	0.543
EBC-1	0.648	0.515	0.585	0.494	0.636	1.04	0.878	0.796	0.945	0.915								
EKVX	1.15	0.781	0.987	1.11	1.01	1.15	0.956	0.891	1.01	0.927	0.498	0.369	0.299	0.375	0.526	0.388	0.346	0.449
EMC-BAC-2	1.1	1.06	1.06	1.14	1	0.912	0.821	0.825	0.823	0.8	0.504	0.506	0.468	0.513	0.358	0.327	0.296	0.227
EPLC-272H	0.895	0.917	0.935	0.924	0.902	1.29	1.07	1.13	1.31	1.37	0.346	0.324	0.302	0.307	0.325	0.339	0.382	0.248
H3255	0.719	0.685	0.802	0.875	0.741	0.95	0.899	0.948	1.04	0.911	0.376	0.309	0.328	0.308	0.441	0.417	0.409	0.313
HARA	1.14	1.08	1.03	1.13	1.01	1.01	1.08	0.937	1.06	0.957	0.194		0.273	0.233	0.265	0.28	0.314	0.211
HCC-15	1.16	1.02	1.02	0.985	0.992	0.978	0.874	0.788	0.897	0.878	0.779	0.717	0.618	0.537	0.669	0.584	0.433	0.191
HCC-44	0.903	0.835	0.931	0.905	0.9	0.708	0.66	0.664	0.702	0.698	0.975	0.961	0.965	0.901				
HCC-78	0.513	0.469	0.475	0.417	0.526	0.614	0.543	0.496	0.469	0.399	0.423	0.431	0.611	0.479	0.368	0.397	0.335	0.364
HCC-366	1.03	1.03	1.02	1.13	0.985	0.557	0.578	0.678	0.603	0.648	0.393	0.228	0.317	0.139	0.729	0.571	0.435	0.308
